Literature values as cited in patent US20140056804A1, “PHARMACEUTICAL COMPOUND WHICH INCLUDES CLINOPTILOLITE” (priority 2008, published 2014).

Conditions: NSAIDs such as naproxen

SMILES: COc1ccc2cc([C@H](C)C(=O)O)ccc2c1 [naproxen]
- patients with non-symptomatic mucosal breaks: ~80%
